ChEMBL document CHEMBL2062419, “Synthesis and antiviral activities of hexadecyloxypropyl prodrugs of acyclic nucleoside phosphonates containing guanine or hypoxanthine and a (S)-HPMP or PEE acyclic moiety” (Eur J Med Chem, 2012)
The source made the active and inactive calls. The rule behind the calls is not given here.

Legend:
[1] = Selectivity index, ratio of cytotoxic CC50 for HEL cells to EC50 for VZV 07/01
[2] = Cytotoxicity against HEL cells assessed as effect on cell morphology incubated for 3 days by microscopy; format: cell-based; conditions: human
[3] = Selectivity index, ratio of cytotoxic CC50 for HEL cells to EC50 for Feline herpesvirus; format: toxicity, cell-based; conditions: human, read-out: Ratio CC50/EC50
Human alphaherpesvirus 1 [4] = experiment: Antiviral activity against thymidine kinase negative and ACV resistant HSV1 KOS infected in HEL cells by viral CPE assay; format: functional, organism-based; conditions: Human alphaherpesvirus 1, KOS
Human alphaherpesvirus 3 [5] = experiment: Antiviral activity against thymidine kinase positive VZV OKa infected in HEL cells by plaque formation assay; format: functional, cell-based, Human herpesvirus 3 strain Oka vaccine; conditions: Human alphaherpesvirus 3, OKa
[6] = Selectivity index, ratio of cytotoxic CC50 for HEL cells to EC50 for HCMV AD169
[7] = Selectivity index, ratio of cytotoxic CC50 for HEL cells to EC50 for VZV Oka
Felid alphaherpesvirus 1 = experiment: Antiviral activity against Feline herpesvirus infected in CRFK cells by viral CPE assay; format: functional, organism-based; conditions: Felid alphaherpesvirus 1, CRFK
Human alphaherpesvirus 2 = experiment: Antiviral activity against HSV2 G infected in HEL cells by viral CPE assay; format: functional, organism-based; conditions: Human alphaherpesvirus 2, strain G
Human betaherpesvirus 5 [8] = experiment: Antiviral activity against HCMV AD169 infected in HEL cells by viral CPE assay; format: functional, organism-based; conditions: Human betaherpesvirus 5, AD169, HEL
HEL = experiment: Cytotoxicity against HEL cells assessed as effect on cell growth incubated for 3 days by Coulter counter assay; format: cell-based; conditions: human, 72 h
Human betaherpesvirus 5 [9] = experiment: Antiviral activity against HCMV Davis infected in HEL cells by viral CPE assay; format: functional, organism-based; conditions: Human betaherpesvirus 5, Davis
Human alphaherpesvirus 1 [10] = experiment: Antiviral activity against HSV1 KOS infected in HEL cells by viral CPE assay; format: functional, organism-based; conditions: Human alphaherpesvirus 1, KOS
[11] = Selectivity index, ratio of cytotoxic CC50 for HEL cells to EC50 for HSV1 KOS
Human alphaherpesvirus 3 [12] = experiment: Antiviral activity against thymidine kinase negative VZV 07/01 infected in HEL cells by plaque formation assay; format: functional, organism-based; conditions: Human alphaherpesvirus 3, 07/01, HEL
Vaccinia virus = experiment: Antiviral activity against Vaccinia virus Lederie infected in HEL cells by viral CPE assay; format: functional, organism-based; conditions: Orthopoxvirus vaccinia
[13] = Selectivity index, ratio of cytotoxic CC50 for HEL cells to EC50 for Vaccinia virus Lederie; format: toxicity, cell-based; conditions: human, read-out: Ratio CC50/EC50
[14] = Selectivity index, ratio of cytotoxic CC50 for HEL cells to EC50 for HCMV Davis
[15] = Selectivity index, ratio of cytotoxic CC50 for HEL cells to EC50 for ACV resistant HSV1 KOS
[16] = Selectivity index, ratio of cytotoxic CC50 for HEL cells to EC50 for HSV2 G
[17] = test system: Respiratory syncytial virus; experiment: Antiviral activity against Respiratory syncytial virus Long by viral CPE assay; format: functional, organism-based
Coxsackievirus B4 = experiment: Antiviral activity against Human coxsackievirus B4 by viral CPE assay; format: functional, organism-based
[18] = test system: Vesicular stomatitis virus; experiment: Antiviral activity against VSV by viral CPE assay; format: functional, organism-based
Human respirovirus 3 = experiment: Antiviral activity against Human parainfluenza virus 3 by viral CPE assay; format: functional, organism-based
[19] = test system: Mammalian orthoreovirus 1; experiment: Antiviral activity against Reovirus 1 by viral CPE assay; format: functional, organism-based
[20] = test system: Human immunodeficiency virus 1; experiment: Antiviral activity against HIV1 3B infected in human CEM cells assessed as reduction in virus-induced CEM giant cell formation incubated for 4 days at 37 degC by microscopy; format: functional, organism-based; conditions: CCRF-CEM
[21] = test system: Human immunodeficiency virus 2; experiment: Antiviral activity against HIV2 ROD infected in human CEM cells assessed as reduction in virus-induced CEM giant cell formation incubated for 4 days at 37 degC by microscopy; format: functional, organism-based; conditions: ISOLATE ROD, CCRF-CEM
Punta Toro virus = experiment: Antiviral activity against Punta Toro virus by viral CPE assay; format: functional, organism-based
Sindbis virus = experiment: Antiviral activity against Sindbis virus by viral CPE assay; format: functional, organism-based
Human alphaherpesvirus 3 [22] = experiment: Antiviral activity against thymidine kinase positive VZV YS infected in HEL cells by plaque formation assay; format: functional, organism-based; conditions: Human alphaherpesvirus 3, YS
[23] = Selectivity index, ratio of cytotoxic CC50 for HEL cells to EC50 for VZV YS
Human alphaherpesvirus 3 [24] = experiment: Antiviral activity against thymidine kinase negative VZV YS/R infected in HEL cells by plaque formation assay; format: functional, organism-based; conditions: Human alphaherpesvirus 3, YS/R

Structure (SMILES) | MCC at 72 h [2] | EC50 (Human alphaherpesvirus 1 [4]) | EC50 (Human alphaherpesvirus 3 [5]) | EC50 (Felid alphaherpesvirus 1) | EC50 (Human alphaherpesvirus 2) | EC50 (Human betaherpesvirus 5 [8]) | CC50 (HEL) | EC50 (Human betaherpesvirus 5 [9]) | EC50 (Human alphaherpesvirus 1 [10]) | EC50 (Human alphaherpesvirus 3 [12]) | EC50 (Vaccinia virus) | Activity [17] | Activity (Coxsackievirus B4) | Activity [18] | Activity (Human respirovirus 3) | Activity [19] | Activity [20] | Activity [21] | Activity (Punta Toro virus) | Activity (Sindbis virus) | other results
Nc1nc2c(ncn2C[C@H]2COP(=O)(O)CO2)c(=O)[nH]1 | > 100 µM | 0.5 µM | 0.1 µM | 0.9 µM | 0.66 µM | 1.5 µM | 17 µM | 1.6 µM | 0.66 µM | 0.23 µM | 1 µM |  |  |  |  |  |  |  |  |  | Ratio CC50/EC50 [1]: 74; selectivity ratio [3]: 96; Ratio CC50/EC50 [6]: 11; Ratio CC50/EC50 [7]: 170; Ratio CC50/EC50 [11]: 26; selectivity ratio [13]: 17; Ratio CC50/EC50 [14]: 11; Ratio CC50/EC50 [15]: 34; Ratio CC50/EC50 [16]: 26
Nc1nc(O)c2ncn(COC(CO)CO)c2n1 [GANCICLOVIR] | > 394 µM |  |  | 1.15 µM | 0.029 µM |  | 231 µM |  |  |  | ≥ 93 µM |  |  |  |  |  |  |  |  |  | 
CCCCCCCCCCCCCCCCOCCCOP(=O)(CCOCCn1cnc2c(=O)[nH]c(N)nc21)OCCCOCCCCCCCCCCCCCCCC | ≥ 23 µM | > 115 µM | > 23 µM | > 115 µM | > 115 µM | > 23 µM | > 115 µM | > 23 µM | > 115 µM | > 23 µM | > 115 µM | inactive | inactive | inactive | inactive | inactive | inactive | inactive | inactive | inactive | 
CCCCCCCCCCCCCCCCOCCCOP(=O)(O)CO[C@H](CO)Cn1cnc2c(=O)[nH]cnc21 | ≥ 34 µM | > 6.8 µM | > 6.8 µM | > 34 µM | > 6.8 µM | > 34 µM | 66 µM | 15.2 µM | > 6.8 µM |  | > 6.8 µM | inactive | inactive | inactive | inactive | inactive | inactive | inactive | inactive | inactive | 
CCCCCCCCCCCCCCCCOCCCOP(=O)(O)CO[C@H](CO)Cn1cnc2c(=O)[nH]c(N)nc21 | ≥ 1.3 µM | 0.012 µM | 0.002 µM | > 1.33 µM | 0.007 µM | 0.0066 µM | 0.72 µM | 0.0022 µM | 0.008 µM | 0.0017 µM | 0.011 µM | inactive | inactive | inactive | inactive | inactive | inactive | inactive | inactive | inactive | Ratio CC50/EC50 [1]: 423; Ratio CC50/EC50 [6]: 109; Ratio CC50/EC50 [7]: 360; Ratio CC50/EC50 [11]: 90; EC50 (Human alphaherpesvirus 3 [22]): 0.0025 µM; Ratio CC50/EC50 [23]: 288; selectivity ratio [13]: 65; Ratio CC50/EC50 [14]: 327; Ratio CC50/EC50 [15]: 60; Ratio CC50/EC50 [16]: 103
Nc1ccn(C[C@@H](CO)OCP(=O)(O)O)c(=O)n1 [CIDOFOVIR] | > 317 µM | 1.75 µM |  |  |  | 1.37 µM | 241 µM |  | 0.93 µM |  | 14 µM |  |  |  |  |  |  |  |  |  | 
O=c1[nH]c(=O)n([C@H]2C[C@H](O)[C@@H](CO)O2)cc1/C=C/Br [BRIVUDINE] | > 300 µM | ≥ 183 µM |  |  | 105 µM |  | 347 µM |  | 0.038 µM | 53 µM |  |  |  |  |  |  |  |  |  |  | EC50 (Human alphaherpesvirus 3 [24]): ≥ 120 µM; EC50 (Human alphaherpesvirus 3 [22]): 0.006 µM
CCCCCCCCCCCCCCCCOCCCOP(=O)(CO[C@H](CO)Cn1cnc2c(=O)[nH]cnc21)OCCCOCCCCCCCCCCCCCCCC | ≥ 23 µM | > 115 µM | > 23 µM | > 115 µM | > 115 µM | > 23 µM | > 115 µM | > 23 µM | > 115 µM | > 4.6 µM | > 115 µM | inactive | inactive | inactive | inactive | inactive | inactive | inactive | inactive | inactive | 
CCCCCCCCCCCCCCCCOCCCOP(=O)(O)CCOCCn1cnc2c(=O)[nH]cnc21 | 175 µM | > 35 µM | > 35 µM | > 35 µM | > 35 µM | > 35 µM | 78 µM | > 35 µM | > 35 µM | > 35 µM | > 35 µM | inactive | inactive | inactive | inactive | inactive | inactive | inactive | inactive | inactive | 
Nc1nc2c(ncn2COCCO)c(=O)[nH]1 [ACYCLOVIR] | > 444 µM | ≥ 212 µM |  |  | 0.38 µM |  | 918 µM |  | 0.53 µM |  | > 1000 µM |  |  |  |  |  |  |  |  |  | 
CCCCCCCCCCCCCCCCOCCCOP(=O)(CCOCCn1cnc2c(=O)[nH]cnc21)OCCCOCCCCCCCCCCCCCCCC | ≥ 117 µM | > 117 µM | > 23.4 µM | > 23.4 µM | > 117 µM | > 23.4 µM | 117 µM | > 23.4 µM | > 117 µM | > 23.4 µM | > 117 µM | inactive | inactive | inactive | inactive | inactive | inactive | inactive | inactive | inactive | 
CCCCCCCCCCCCCCCCOCCCOP(=O)(O)CCOCCn1cnc2c(=O)[nH]c(N)nc21 | ≥ 34 µM | 2.8 µM | 0.14 µM | > 171 µM | 1.9 µM | 0.13 µM | 26 µM | 0.06 µM | 1.37 µM | 0.3 µM | ≥ 34 µM | inactive | inactive | inactive | inactive | inactive | inactive | inactive | inactive | inactive | Ratio CC50/EC50 [1]: 87; Ratio CC50/EC50 [6]: 200; Ratio CC50/EC50 [7]: 186; Ratio CC50/EC50 [11]: 19; EC50 (Human alphaherpesvirus 3 [22]): 0.19 µM; Ratio CC50/EC50 [23]: 137; selectivity ratio [13]: < 1; Ratio CC50/EC50 [14]: 433; Ratio CC50/EC50 [15]: 9; Ratio CC50/EC50 [16]: 14
CCCCCCCCCCCCCCCCOCCCOP1(=O)CO[C@@H](Cn2cnc3c(=O)[nH]cnc32)CO1 (mixture of isomers) | ≥ 7 µM | > 7 µM | > 1.4 µM | > 176 µM | > 7 µM | > 7 µM | > 176 µM | > 7 µM | > 7 µM | > 1.4 µM | > 7 µM | inactive | inactive | inactive | inactive | inactive | inactive | inactive | inactive | inactive | 
